Reference: US11458212B2, “Molecular imaging of cancer cells in vivo” (H. Lee Moffitt Cancer Center and Research Institute, Inc., priority 2011, dated 2022)
Like-named read-outs stand apart in the source and are kept apart here.

Target: TLR2 (Homo sapiens, UniProt O60603)
Assay: In vitro TLR2 functional bioassay (NF-κB luciferase, HEK293/hTLR2 cells)
Format: cell-based
Parameters: host or cells: HEK293 stably transfected with pUNO-hTLR2, transiently transfected with the pNifty-Luc reporter
Excerpt: In Vitro TLR2 Functional Bioassay The in vitro TLR2 functional bioassay was developed and optimized for use in screening soluble compound libraries to identify both TLR2 agonists and antagonists. In this study, the TLR2 functional bioassay was used as a fast high throughput screening to identify TLR2 agonist ligands by measuring the inducing activity of NF-κB. HEK293/hTLR2 cells, highly overexpressing human TLR2, were used along with the parental HEK293, cells as a negative control. Cells were seeded at a density of 40,000 per well using a WellMate® Microplate dispenser (Thermo Fischer Scientific/Matrix) in black 96-well plates with opaque white wells (Perkin Elmer Wallac, Waltham, Mass.) and then incubated at 37° C. On day 2, the cells were transiently transfected with pNifty-Luc (InvivoGen), an NF-κB inducible reporter plasmid expressing the luciferase reporter gene (Zuany-Amorim, C., J., et al. Nat Rev Drug Discov, 2002. 1(10):797-807), using an optimized 4:1 ratio by volume of Fugene® HD Transfection Reagent (Roche Applied Science, Indianapolis, Ind.) to pNifty-Luc plasmid DNA (1 μg/mL). […] On day 4 after 24 hrs of peptide stimulation, luciferase induced activity by the induction of NF-κB was measured. Media was aspirated from the wells using an ELx405 Select plate washer (BioTek, Winooski, Vt.), 150 μg/mL D-luciferin (Gold Biotechnology, St. Louis, Mo.) was dispensed using the microplate dispensor; the plates were incubated at 37° C. for 5 min. The luminescence intensity was measured using the standard luminescence protocol on a Victor™ X4 plate-reader equipped with a plate stacker for readout of multiple plates at a time (PerkinElmer, Waltham, Mass.). For each in vitro TLR2 bioassay, at least three different experiments were performed in triplicate (n=3+). Data were analyzed with GraphPad Prism software and curves were generated with the appropriate nonlinear fit regression analysis.
The in vitro TLR2 functional bioassay was developed and optimized for use in high-throughput screening of soluble compound libraries to identify both TLR2 agonists and antagonists. The bioassay measures the induction of NF-κB signaling via TLR2 in HEK-293/hTLR2 cells and parental HEK-293 cells as a negative control. Cells were seeded at a density of 40,000 per well using a WellMate Microplate dispenser (Thermo Fisher Scientific/Matrix) in black 96-well plates with opaque white wells (PerkinElmer, Waltham, Mass.) and then incubated at 37° C. On day 2, the cells were transiently transfected with pNifty-Luc (InvivoGen, San Diego, Calif.), an NF-κB inducible reporter plasmid expressing the luciferase reporter gene[28] using an optimized 4:1 ratio by volume of FugeneHD Transfection Reagent (Promega, Madison, Wis.) to pNifty-Luc plasmid DNA (1 μg/mL). […] […] On day 4 after 24 h of peptide stimulation, luciferase induced activity by the induction of NF-κB was measured. Media was aspirated from the wells using an ELx405 Select CW plate washer (BioTek, Winooski, Vt.), 150 μg/mL D-luciferin (Gold Biotechnology, St. Louis, Mo.) was dispensed using the microplate dispensor; the plates were incubated at 37° C. for 5 min. The luminescence intensity was measured using the standard luminescence protocol on a Victor X4 Multilabel plate reader equipped with a plate stacker for readout of multiple plates at a time (PerkinElmer, Waltham, Mass.). […] Data were analyzed with GraphPad Prism software and curves were generated with the appropriate nonlinear fit regression analysis.

[1] = dose-response 0.001 ng/mL to 10 μg/mL, read-out: TLR2 Agonist Activity EC50
[2] = log(agonist) vs. normalized response, doses 0.01 ng/mL to 1 μg/mL, read-out: EC50

TLR2, sequence (O60603 21-784): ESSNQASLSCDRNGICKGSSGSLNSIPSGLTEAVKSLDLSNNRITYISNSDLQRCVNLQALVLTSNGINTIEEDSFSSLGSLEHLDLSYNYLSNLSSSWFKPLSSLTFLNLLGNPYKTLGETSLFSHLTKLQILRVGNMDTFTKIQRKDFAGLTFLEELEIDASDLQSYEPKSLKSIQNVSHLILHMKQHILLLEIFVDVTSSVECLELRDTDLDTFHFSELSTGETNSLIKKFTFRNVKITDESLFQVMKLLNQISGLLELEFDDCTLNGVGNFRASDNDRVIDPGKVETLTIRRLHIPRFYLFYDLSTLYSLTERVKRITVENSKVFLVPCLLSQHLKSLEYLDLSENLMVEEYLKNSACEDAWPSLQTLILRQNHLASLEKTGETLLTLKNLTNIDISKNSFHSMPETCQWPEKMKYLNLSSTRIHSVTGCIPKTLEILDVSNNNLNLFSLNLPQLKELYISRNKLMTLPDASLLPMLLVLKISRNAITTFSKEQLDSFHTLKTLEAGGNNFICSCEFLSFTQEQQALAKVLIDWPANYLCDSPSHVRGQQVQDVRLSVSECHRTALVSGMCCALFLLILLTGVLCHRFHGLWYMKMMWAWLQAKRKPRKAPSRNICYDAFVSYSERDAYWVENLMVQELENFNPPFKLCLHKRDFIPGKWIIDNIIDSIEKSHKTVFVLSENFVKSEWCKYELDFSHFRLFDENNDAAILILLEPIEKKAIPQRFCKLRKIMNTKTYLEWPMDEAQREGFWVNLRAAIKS
TLR2, sequence (Q9Y2C9 32-796 partner): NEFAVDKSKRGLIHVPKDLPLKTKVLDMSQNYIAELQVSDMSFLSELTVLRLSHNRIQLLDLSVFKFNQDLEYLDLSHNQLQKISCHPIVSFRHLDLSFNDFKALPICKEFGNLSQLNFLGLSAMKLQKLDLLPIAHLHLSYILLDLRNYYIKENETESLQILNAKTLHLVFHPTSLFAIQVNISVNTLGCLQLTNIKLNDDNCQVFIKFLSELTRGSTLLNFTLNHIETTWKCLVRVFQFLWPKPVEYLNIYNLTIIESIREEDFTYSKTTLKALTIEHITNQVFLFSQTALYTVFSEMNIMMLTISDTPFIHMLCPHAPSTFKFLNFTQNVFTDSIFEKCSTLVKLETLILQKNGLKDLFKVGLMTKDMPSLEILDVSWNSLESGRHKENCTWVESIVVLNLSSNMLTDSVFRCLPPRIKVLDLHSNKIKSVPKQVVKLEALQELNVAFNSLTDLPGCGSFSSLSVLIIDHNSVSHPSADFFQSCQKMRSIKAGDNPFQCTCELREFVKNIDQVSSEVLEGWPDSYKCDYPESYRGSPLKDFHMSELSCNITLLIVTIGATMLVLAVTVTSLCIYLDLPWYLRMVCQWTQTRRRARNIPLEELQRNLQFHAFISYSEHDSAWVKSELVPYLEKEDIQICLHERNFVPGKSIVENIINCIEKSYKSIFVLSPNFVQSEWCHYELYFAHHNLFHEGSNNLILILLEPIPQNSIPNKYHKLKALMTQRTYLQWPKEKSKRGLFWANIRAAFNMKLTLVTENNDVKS

| Compound | EC50 [1] | EC50 [2] | luciferase activity relative to cells incubated with no ligand (24 h post ligand stimulation, n=6) |
| --- | --- | --- | --- |
| CCCCCCCCCCCCCCCC(=O)OCC(CSC[C@H](N)C(=O)N[C@@H](CO)C(=O)N[C@@H](CCCCN)C(=O)N[C@@H](CCCCN)C(=O)N[C@@H](CCCCN)C(=O)N[C@@H](CCCCN)C(=O)O)OC(=O)CCCCCCCCCCCCCCC (mixture of isomers) [Pam2CSK4, S-[2,3-bis(palmitoyloxy)-(2RS)-propyl]-[R]-cysteinyl-[S]-seryl-[S]-lysyl-[S]-lysyl-[S]-lysyl-[S]-lysine, reference compound] | 3.7 nM | 3.66 nM |  |
| CCCCCCCCCCCCCCCC(=O)N[C@@H](CSCC(COC(=O)CCCCCCCCCCCCCCC)OC(=O)CCCCCCCCCCCCCCC)C(=O)N[C@@H](CO)C(=O)N[C@@H](CCCCN)C(=O)N[C@@H](CCCCN)C(=O)N[C@@H](CCCCN)C(=O)N[C@@H](CCCCN)C(=O)O (mixture of isomers) [Pam3CSK4, N-Palmitoyl-S-[2,3-bis(palmitoyloxy)-(2RS)-propyl]-[R]-cysteinyl-[S]-seryl-[S]-lysyl-[S]-lysyl-[S]-lysyl-[S]-lysine, reference compound] | 23 nM | 22.5 nM | 50 fold |
